The subject of one experiment is HepG2 cells. Kind of experiment: DGAT inhibitory effect in HepG2 cells (triglyceride production from [14C]glycerol). It counts as cell-based. Conditions: Homo sapiens; for activity at 10 µM: HepG2, 6 h, DMSO control = 100, read-out: Triglyceride production rate (%)/HepG2 cells at 10 μM; for inhibition at 10 µM: HepG2, 10 μM, read-out: biosynthesis inhibition rate of triglyceride. In a few lines:
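HepG2 cells, switched to FBS-free DMEM, were treated with compounds at 10 μM and given 0.2 mCi [14C]glycerol for 6 hr. Lipids were hexane:isopropanol-extracted, triglyceride separated by TLC and quantified by radio-imaging, normalised to cell protein. Production expressed relative to DMSO control set at 100.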

In another experiment the target is T1, hDGAT-1 (HuTu 80) (Homo sapiens, UniProt O75907).
T1 construct: microsomal protein isolated from human duodenal adenocarcinoma (‘Hutu 80’); endogenous in cells; host or cells: HuTu 80 human duodenal adenocarcinoma cells (microsomes)
T1 sequence (O75907 1-488): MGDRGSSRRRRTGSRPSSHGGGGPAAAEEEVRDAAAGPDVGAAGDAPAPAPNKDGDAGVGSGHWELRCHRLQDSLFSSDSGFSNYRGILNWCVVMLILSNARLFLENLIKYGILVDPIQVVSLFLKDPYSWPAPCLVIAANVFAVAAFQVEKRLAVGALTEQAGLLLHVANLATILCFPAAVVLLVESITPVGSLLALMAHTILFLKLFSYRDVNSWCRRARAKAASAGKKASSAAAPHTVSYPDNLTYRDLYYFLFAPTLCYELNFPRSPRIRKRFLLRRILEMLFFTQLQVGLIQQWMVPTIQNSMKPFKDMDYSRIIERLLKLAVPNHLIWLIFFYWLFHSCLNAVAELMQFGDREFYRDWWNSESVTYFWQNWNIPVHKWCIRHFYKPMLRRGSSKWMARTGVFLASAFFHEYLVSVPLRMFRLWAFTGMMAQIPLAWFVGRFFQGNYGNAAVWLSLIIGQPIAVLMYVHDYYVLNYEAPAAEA
Kind of experiment: DGAT enzyme inhibition test, microsomal protein from human duodenal adenocarcinoma (Hutu 80). It counts as biochemical. To be noted: microsomal protein from HuTu 80. The source says:
To investigate inhibitory effect of the compounds of Examples 1-33 against DGAT enzyme activity, DGAT enzyme inhibition and DGAT2 selectivity were investigated using zymogen including:
2) DGAT enzyme derived from human duodenal adenocarcinoma (‘Hutu 80’), and
To be specific, for the purpose of measuring human-derived DGAT enzyme inhibitory activity, using the zymogen, including enzymes derived from insect cell overexpressing human DGAT1 and DGAT2 (‘sf9’), microsomal protein isolated from human duodenal adenocarcinoma (‘Hutu 80’), and microsomal protein isolated from rat, and according to Coleman et al., (Methods Enzymol., 98-103, 1992), and substrate including 1,2-diacylglycerol(Sigma, D0138) and [^14C]palmitoyl-CoA (Amersham, CFA583), the amount of radiation of [^14C]triacylglycerol produced after enzymatic reaction was measured.
To be more specific, to the reaction solution containing 175 mM Tris-HCl (pH 8.0), 20 μl bovine serum albumin (10 mg/ml), 100 mM magnesium chloride, 30 μM [^14C]palmitoyl CoA (0.02 μCi, Amersham) and 200 μM 1,2-dioleoylglycerol, reagent dissolved in dimethylsulfoxide (10.0 μl) was added. After introducing 100 to 200 μg isolated microsomal protein and allowing the same to react at 25° C. for 10 min, the reaction was stopped by adding 1.5 ml stop solution (2-propanol:heptane:water=80:20:2, v:v:v). To isolate the product of the reaction (i.e., [^14C]triacylglycerol), 1 ml heptane and 0.5 ml distilled water were added and then decocted. After taking 1 ml supernatant, 2 ml alkaline ethanol solution (ethanol:0.5 N sodium hydroxide:water=50:10:40, v:v:v) were added and then decocted. After taking 0.65 ml supernatant from the decoction, the amount of radiation was measured with liquid scintillation counter (LSC). The DGAT inhibitory activity was calculated with Mathematical Expression 1 below:
T denotes cpm of experimental group in which the enzymatic reaction solution was treated with the sample,
C denotes cpm of control group in which the enzymatic reaction solution was not treated with the sample, and
B denotes cpm of control group treated with the sample without zymogen.

Bounds are passed on as bounds.

A word on the IC50: it is the point on the concentration scale where inhibition reaches its midpoint. Low readings indicate inhibition by little substance, high ones a need for much substance. A word on the inhibition: it is the drop in the measured response relative to a control, in per cent.

On to `CC(C)(C)OC(=O)n1cc(/C=C/C(=O)NNS(=O)(=O)c2ccccc2)c2ccccc21` [Example 17, (E)-tert-butyl 3-(3-oxo-3-(2-(phenylsulfonyl)hydrazinyl)prop-1-enyl)-1H-indole-1-carboxylate], for which the activity at 10 µM in the experiment on HepG2 cells turned out to be 81.7%. On hDGAT-1 (HuTu 80), this compound registered an IC50 above 100 µM.

Turning to `CC(C)N(NC(=O)c1ccccc1)C(=O)/C=C/c1cn(C2CC2)c2ccccc12` [Example 29, (E)-N′-(3-(1-cyclopropyl-1H-indol-3-yl)acryloyl)-N′-isopropylbenzohydrazide], in the experiment with HepG2 cells, the activity at 10 µM was 59.6% and the inhibition at 10 µM lay within 30 to 40%. Besides, on hDGAT-1 (HuTu 80), the IC50 came out at 4.6 µM.

As for `CC(C)N(NC(=O)c1ccccc1)C(=O)CCc1cn(Cc2ccccc2)c2ccccc12` [Example 21, N′-(3-(1-benzyl-1H-indol-3-yl)propanoyl)-N′-isopropylbenzohydrazide], the activity at 10 µM in the experiment with HepG2 cells was 103%. The IC50 against hDGAT-1 (HuTu 80) amounted to 29.6 µM.

Take `CC(C)N(NC(=O)c1ccc(Cl)cc1)C(=O)/C=C/c1cn(C(=O)OC(C)(C)C)c2ccccc12` [Example 14, (E)-tert-butyl 3-(3-(2-(4-chlorobenzoyl)-1-isopropylhydrazinyl)-3-oxoprop-1-enyl)-1H-indole-1-carboxylate]: the activity at 10 µM with HepG2 cells is 84.4%. The compound further returned an IC50 on hDGAT-1 (HuTu 80) of 2.7 µM.

On to `CC(C)N(NC(=O)c1cccc(OCC(N)=O)c1)C(=O)/C=C/c1cn(C(=O)OC(C)(C)C)c2ccccc12` [Example 20, (E)-tert-butyl 3-(3-(2-(3-(2-amino-2-oxoethoxy)benzoyl)-1-isopropylhydrazinyl)-3-oxoprop-1-enyl)-1H-indole-1-carboxylate], for which, in the experiment with HepG2 cells, the activity at 10 µM was 109%. Further, at hDGAT-1 (HuTu 80), the IC50 came out at 73.3 µM.

For `CC(C)N(NC(=O)c1ccccc1)C(=O)/C=C/c1cn(C(=O)C(C)(C)C)c2ccccc12` [Example 31, (E)-N′-isopropyl-N′-(3-(1-pivaloyl-1H-indol-3-yl)acryloyl)benzohydrazide], in the experiment with HepG2 cells, the activity at 10 µM is 93.3%. In addition, on hDGAT-1 (HuTu 80), the IC50 was found to be 5.1 µM.

As for `COCCOc1cccc(C(=O)NN(C(=O)/C=C/c2cn(C(=O)OC(C)(C)C)c3ccccc23)C(C)C)c1` [Example 10, (E)-tert-butyl 3-(3-(1-isopropyl-2-(3-(2-methoxyethoxy)benzoyl)hydrazinyl)-3-oxoprop-1-enyl)-1H-indole-1-carboxylate], in the experiment on HepG2 cells, the activity at 10 µM was determined as 62% and the inhibition at 10 µM fell in the range of 30 to 40%. The compound further yielded an IC50 on hDGAT-1 (HuTu 80) of 7.7 µM.

As for `COc1ccc(C(=O)NN(C(=O)/C=C/c2cn(C(=O)OC(C)(C)C)c3ccccc23)C(C)C)cc1` [Example 7, (E)-tert-butyl 3-(3-(1-isopropyl-2-(4-methoxybenzoyl)hydrazinyl)-3-oxoprop-1-enyl)-1H-indole-1-carboxylate], the activity at 10 µM in the experiment on HepG2 cells is 85.8%. The compound further showed an IC50 against hDGAT-1 (HuTu 80) of 11.6 µM.

For the origin of these results see patent US8906952B2, “Indole derivative or pharmaceutically acceptable salt thereof, preparation method thereof, and pharmaceutical composition for preventing or treating metabolic diseases containing same as active ingredient” (Korea Research Institute of Bioscience and Biotechnology, priority 2011, dated 2014).
